Source: ChEMBL document CHEMBL5726262, “BET protein-inhibiting 5-aryltriazoleazepines” (2017)

Biological target: Bromodomain-containing protein 4 (Homo sapiens, UniProt O60885)
Assay: Time-Resolved Fluorescence Resonance energy Transfer (TR-FRET) Assay: For this purpose, a time-resolved fluorescence resonance energy transfer (TR-FRET) assay was used, which measures the binding between N-terminally His6-tagged BRD4(1) (amino acids 44-168) and a synthetic acetylated histone H4 (Ac-H4) peptide with sequence GRGK(Ac)GGK(Ac)GLGK(Ac)GGAK(Ac)RHGSGSK-biotin. The recombinant BRD4 protein produced in-house according to Filippakopoulos et al., Cell, 2012, 149:214-231 was expressed in E. coli and purified by means of (Ni-NTA) affinity and (Sephadex G-75) size exclusion chromatography. The Ac-H4 peptide can be purchased, for example, from Biosyntan (Berlin, Germany).In the assay, typically 11 different concentrations of each substance (0.1 nM, 0.33 nM, 1.1 nM, 3.8 nM, 13 nM, 44 nM, 0.15 μM, 0.51 μM, 1.7 μM, 5.9 μM and 20 μM) were analysed as duplicates on the same microtitre plate. For this purpose, 100-fold concentrated solutions in DMSO were prepared by serial dilutions (1:3.4) of a 2 mM stock solution into a clear, 384-well microtitre plate (Greiner Bio-One, Frickenhausen, Germany). From this, 50 nl were transferred into a black test plate (Greiner Bio-One, Frickenhausen, Germany). […]

- IC50: 220 nM
Compound: Cc1nnc2n1-c1ccc(OC(F)(F)F)cc1C(c1ccc(Cl)cc1)=C[C@H]2CC(=O)N1CC2(COC2)C1
